Reference: patent US12173018B2, “Penicillin-binding protein inhibitors” (priority 2018, dated 2024)
Values after ≈ are worked out from the molar mass of the structure shown. Where two headings read alike, the source gives them in different places.

Tests used:
E. coli PBP2 = E. coli PBP2 (Escherichia coli (strain K12), UniProt P0AD65); test: E. coli PBP2 Bocillin-FL fluorescence polarization competition binding assay
In short: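 Fluorescence polarization competition with Bocillin-FL (0.1 μM final) and purified PBP2 (1.5 μM final) in 50 mM Hepes pH 8.0, 300 mM NaCl, 5% glycerol. FP (ex 490/em 520 nm) read for 90 min after Bocillin-FL addition; EC50 is the inhibitor concentration reducing Bocillin-FL binding by half.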

E. coli PBP4 = E. coli PBP4 (Escherichia coli (strain K12), UniProt P24228); test: E. coli PBP4 Bocillin-FL fluorescence polarization competition binding assay; conditions: fluorescence polarization competition binding with Bocillin-FL; read-out: E. coli K12 PBP4 Potency (EC50)
Excerpt: To determine the ability of boronic acid-based test PBP inhibitors to bind Penicillin Binding Proteins (PBPs), Bocillin-FL (fluorescently-labeled penicillin V; ThermoFisher Scientific) was used in a fluorescence polarization (FP) competition binding assay to assess inhibitor binding to PBP2, PBP3 or PBP4 from Escherichia coli. PBPs were cloned and purified as described previously (King, D. T, et al., ACS Infectious Diseases 2015, 1, 175-184). To establish assay conditions for competition binding, an enzyme titration/saturation binding experiment was initially performed. Bocillin-FL was prepared at 0.2 μM in a buffer comprised of 50 mM Hepes (pH 8.0), 300 mM NaCl and 5% (v/v) glycerol. Saturation binding was performed by mixing 40 μl of PBP solutions ranging in concentrations from 0-12 μM with 40 μl of the 0.2 μM Bocillin-FL solution, in individual wells of a black 384-well microplate. FP was measured immediately upon mixing (Excitation, 490 nm; Emission, 520 nm; g-factor, 0.96), using a Cytation3 (BioTek) microplate reader and measured continuously for up to 120 minutes. […] Assays (80 μl final volume) were performed with PBPs at a final concentration of 1.5 μM, Bocillin-FL at 0.1 μM and beta-lactam concentrations that ranged from 0-1000 μM. […] Bocillin-FL was added and the FP immediately measured for 60 minutes (90 minutes for PBP2). The beta-lactam potency was reported as the concentration of beta-lactam required to reduce binding of Bocillin-FL by […] (EC50). […] Binding assays for boronic acid PBP inhibitors were performed in an identical fashion.

[1] = system: engineered strain of Escherichia coli harboring CTX-M15; test: microbe, parasite or virus in culture; format: cell-based; conditions: Escherichia coli
[2] = fluorescence polarization competition binding with Bocillin-FL, read-out: E. coli K12 PBP2 Potency (EC50)
[3] = read-out: Microbiological Activity (MIC in mg/L), E. coli DH5α/pLBII-CTX-M15, engineered strain producing CTX-M15

Chain of E. coli PBP4 (P24228 21-477): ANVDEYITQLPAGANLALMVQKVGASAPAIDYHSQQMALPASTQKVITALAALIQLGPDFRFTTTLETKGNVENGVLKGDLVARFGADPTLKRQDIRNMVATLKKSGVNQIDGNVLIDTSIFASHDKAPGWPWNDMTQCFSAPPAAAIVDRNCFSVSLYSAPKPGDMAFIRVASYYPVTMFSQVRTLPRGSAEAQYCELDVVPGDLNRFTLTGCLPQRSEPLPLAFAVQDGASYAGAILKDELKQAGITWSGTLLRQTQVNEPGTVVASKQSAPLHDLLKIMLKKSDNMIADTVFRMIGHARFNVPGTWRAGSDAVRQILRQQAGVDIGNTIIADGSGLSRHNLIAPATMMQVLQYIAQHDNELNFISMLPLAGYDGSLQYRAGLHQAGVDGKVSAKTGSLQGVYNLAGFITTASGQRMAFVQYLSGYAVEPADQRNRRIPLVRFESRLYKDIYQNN
Chain of E. coli PBP2 (P0AD65 whole entry): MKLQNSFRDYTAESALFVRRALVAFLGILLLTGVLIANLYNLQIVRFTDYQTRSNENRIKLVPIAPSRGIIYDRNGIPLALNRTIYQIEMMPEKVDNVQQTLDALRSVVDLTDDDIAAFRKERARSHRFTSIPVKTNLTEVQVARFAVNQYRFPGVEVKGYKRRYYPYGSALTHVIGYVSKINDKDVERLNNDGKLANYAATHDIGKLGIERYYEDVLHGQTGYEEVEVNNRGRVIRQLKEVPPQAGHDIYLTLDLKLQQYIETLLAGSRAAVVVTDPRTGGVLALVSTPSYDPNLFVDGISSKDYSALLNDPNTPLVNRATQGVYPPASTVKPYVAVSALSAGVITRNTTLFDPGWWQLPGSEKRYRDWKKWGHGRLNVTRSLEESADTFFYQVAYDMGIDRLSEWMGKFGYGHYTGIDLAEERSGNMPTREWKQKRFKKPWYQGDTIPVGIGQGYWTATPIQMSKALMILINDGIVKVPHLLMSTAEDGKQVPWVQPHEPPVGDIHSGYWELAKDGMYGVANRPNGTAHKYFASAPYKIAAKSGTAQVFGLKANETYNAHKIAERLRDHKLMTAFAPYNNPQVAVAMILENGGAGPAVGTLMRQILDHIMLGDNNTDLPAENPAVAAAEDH

SMILES	EC50 (E. coli PBP2; [2]) [µM]	EC50 (E. coli PBP4) [µM]	MIC [1, 3] [mg/L]	also measured
CCN1CCN(C(=O)NC(C(=O)N[C@H]2Cc3cccc(C(=O)O)c3OB2O)c2csc(N)n2)C(=O)C1=O (stereo partly drawn) [Example 5, (3R)-3-(2-(2-aminothiazol-4-yl)-2-(4-ethyl-2,3-dioxopiperazine-1-carboxamido)acetamido)-2-hydroxy-3,4-dihydro-2H-benzo[e][1,2]oxaborinine-8-carboxylic acid]	30 to 500	> 500	–	–
CCN1CCN(C(=O)NC(C(=O)N[C@H]2Cc3cccc(C(=O)O)c3OB2O)c2ccc(O)c(O)c2Cl)C(=O)C1=O (stereo partly drawn) [Example 37, (3R)-3-(2-(2-chloro-3,4-dihydroxyphenyl)-2-(4-ethyl-2,3-dioxopiperazine-1-carboxamido)acetamido)-2-hydroxy-3,4-dihydro-2H-benzo[e][1,2]oxaborinine-8-carboxylic acid]	–	> 500	8 to 16 (≈ 13.9 to 27.8 µM)	–
CCN1CCN(C(=O)NC(C(=O)N[C@H]2Cc3cccc(C(=O)O)c3OB2O)c2cnc(N)s2)C(=O)C1=O (stereo partly drawn) [Example 51, (3R)-3-(2-(2-aminothiazol-5-yl)-2-(4-ethyl-2,3-dioxopiperazine-1-carboxamido)acetamido)-2-hydroxy-3,4-dihydro-2H-benzo[e][1,2]oxaborinine-8-carboxylic acid]	> 500	> 500	–	–
CCN1CCN(C(=O)NC(C(=O)N[C@H]2Cc3cccc(C(=O)O)c3OB2O)c2ccc(O)c(O)c2F)C(=O)C1=O (stereo partly shown) [Example 70]	–	–	32 to 64 (≈ 57.3 to 115 µM)	–
O=C(O)c1cccc2c1OB(O)[C@@H](NC(=O)C(NC(=O)N1CCN(CCF)C(=O)C1=O)c1ccc(O)c(O)c1Cl)C2 (stereo partly drawn) [Example 71, (3R)-3-(2-(2-chloro-3,4-dihydroxyphenyl)-2-(4-(2-fluoroethyl)-2,3-dioxopiperazine-1-carboxamido)acetamido)-2-hydroxy-3,4-dihydro-2H-benzo[e][1,2]oxaborinine-8-carboxylic acid]	–	–	8 to 16 (≈ 13.5 to 27 µM)	–
CCCN1CCN(C(=O)NC(C(=O)N[C@H]2Cc3cccc(C(=O)O)c3OB2O)c2ccc(O)c(O)c2Cl)C(=O)C1=O (stereo partly drawn) [Example 82, (3R)-3-(2-(2-chloro-3,4-dihydroxyphenyl)-2-(2,3-dioxo-4-propylpiperazine-1-carboxamido)acetamido)-2-hydroxy-3,4-dihydro-2H-benzo[e][1,2]oxaborinine-8-carboxylic acid]	–	> 500	32 to 64 (≈ 54.4 to 109 µM)	–
CCN1CCN(C(=O)NC(C(=O)N[C@H]2Cc3cccc(C(=O)O)c3OB2O)c2ccc(S(N)(=O)=O)cc2)C(=O)C1=O (stereo partly drawn) [Example 102, (3R)-3-(2-(4-ethyl-2,3-dioxopiperazine-1-carboxamido)-2-(4-sulfamoylphenyl)acetamido)-2-hydroxy-3,4-dihydro-2H-benzo[e][1,2]oxaborinine-8-carboxylic acid]	> 500	–	8 to 16 (≈ 13.6 to 27.2 µM)	–
NS(=O)(=O)c1ccc(C(NC(=O)N2CCN(CCF)C(=O)C2=O)C(=O)N[C@H]2Cc3cccc(C(=O)O)c3OB2O)cc1 (stereo partly drawn) [Example 103, (3R)-3-(2-(4-(2-fluoroethyl)-2,3-dioxopiperazine-1-carboxamido)-2-(4-sulfamoylphenyl)acetamido)-2-hydroxy-3,4-dihydro-2H-benzo[e][1,2]oxaborinine-8-carboxylic acid]	> 500	–	–	–
CCN1CCN(C(=O)NC(C(=O)N[C@H]2Cc3cccc(C(=O)O)c3OB2O)c2cccc(N)n2)C(=O)C1=O (stereo partly drawn) [Example 104, (3R)-3-(2-(6-aminopyridin-2-yl)-2-(4-ethyl-2,3-dioxopiperazine-1-carboxamido)acetamido)-2-hydroxy-3,4-dihydro-2H-benzo[e][1,2]oxaborinine-8-carboxylic acid]	–	–	–	EC50 (E. coli PBP2): 30 to 500 µM
CCN1CCN(C(=O)NC(C(=O)N[C@H]2Cc3cccc(C(=O)[O-])c3OB2O)c2ccc[n+](CC(N)=O)c2)C(=O)C1=O (stereo partly drawn) [Example 107, (3R)-3-(2-(1-(2-amino-2-oxoethyl)pyridin-1-ium-3-yl)-2-(4-ethyl-2,3-dioxopiperazine-1-carboxamido)acetamido)-2-hydroxy-3,4-dihydro-2H-benzo[e][1,2]oxaborinine-8-carboxylate]	–	–	32 to 64 (≈ 56.5 to 113 µM)	–
CCN1CCN(C(=O)NC(C(=O)N[C@H]2Cc3ccc(F)c(C(=O)O)c3OB2O)c2csc(N)n2)C(=O)C1=O (stereo partly drawn) [Example 109, (3R)-3-(2-(2-aminothiazol-4-yl)-2-(4-ethyl-2,3-dioxopiperazine-1-carboxamido)acetamido)-7-fluoro-2-hydroxy-3,4-dihydro-2H-benzo[e][1,2]oxaborinine-8-carboxylic acid]	> 500	–	2 to 4 (≈ 3.65 to 7.3 µM)	–
CCN1CCN(C(=O)NC(C(=O)N[C@H]2Cc3cccc(C(=O)O)c3OB2O)c2ccc(B(O)O)cc2)C(=O)C1=O (stereo partly shown) [Example 112]	–	–	–	MIC ([1]; read-out: Microbiological Activity (MIC in mg/L), E. coli DH5α/pLBII-CTX-M15): 32 to 64 mg/L (≈ 58 to 116 µM)
O=C(O)c1cccc2c1OB(O)[C@@H](NC(=O)C(NC(=O)N1CCN(CCF)C(=O)C1=O)c1ccc(B(O)O)cc1)C2 (stereo partly drawn) [Example 113, (3R)-3-(2-(4-boronophenyl)-2-(4-(2-fluoroethyl)-2,3-dioxopiperazine-1-carboxamido)acetamido)-2-hydroxy-3,4-dihydro-2H-benzo[e][1,2]oxaborinine-8-carboxylic acid]	–	–	32 to 64 (≈ 56.1 to 112 µM)	–
CCN1CCN(C(=O)NC(C(=O)N[C@H]2Cc3cccc(C(=O)O)c3OB2O)c2cccs2)C(=O)C1=O (stereo partly drawn) [Example 115, (3R)-3-(2-(4-ethyl-2,3-dioxopiperazine-1-carboxamido)-2-(thiophen-2-yl)acetamido)-2-hydroxy-3,4-dihydro-2H-benzo[e][1,2]oxaborinine-8-carboxylic acid]	–	–	32 to 64 (≈ 62.2 to 124 µM)	–
CCN1CCN(C(=O)NC(C(=O)N[C@H]2Cc3cccc(C(=O)O)c3OB2O)c2ncc(O)cc2F)C(=O)C1=O (stereo partly drawn) [Example 135, (3R)-3-(2-(4-ethyl-2,3-dioxopiperazine-1-carboxamido)-2-(3-fluoro-5-hydroxypyridin-2-yl)acetamido)-2-hydroxy-3,4-dihydro-2H-benzo[e][1,2]oxaborinine-8-carboxylic acid]	30 to 500	–	–	–
CCN1CCN(C(=O)NC(C(=O)N[C@H]2Cc3ccc(F)c(C(=O)O)c3OB2O)c2cc(O)c(O)cc2F)C(=O)C1=O (stereo partly drawn) [Example 136, (3R)-3-(2-(4-ethyl-2,3-dioxopiperazine-1-carboxamido)-2-(2-fluoro-4,5-dihydroxyphenyl)acetamido)-7-fluoro-2-hydroxy-3,4-dihydro-2H-benzo[e][1,2]oxaborinine-8-carboxylic acid]	–	> 500	–	–
CCN1CCN(C(=O)NC(C(=O)N[C@H]2Cc3ccc(F)c(C(=O)O)c3OB2O)c2ncc(O)cc2F)C(=O)C1=O (stereo partly drawn) [Example 145, (3R)-3-(2-(4-ethyl-2,3-dioxopiperazine-1-carboxamido)-2-(3-fluoro-5-hydroxypyridin-2-yl)acetamido)-7-fluoro-2-hydroxy-3,4-dihydro-2H-benzo[e][1,2]oxaborinine-8-carboxylic acid]	–	> 500	–	–
CCN1CCN(C(=O)NC(C(=O)N[C@H]2Cc3cccc(C(=O)O)c3OB2O)c2ncc(O)cc2Cl)C(=O)C1=O (stereo partly drawn) [Example 150, (3R)-3-(2-(4-ethyl-2,3-dioxopiperazine-1-carboxamido)-2-(3-chloro-5-hydroxypyridin-2-yl)acetamido)-2-hydroxy-3,4-dihydro-2H-benzo[e][1,2]oxaborinine-8-carboxylic acid]	> 500	–	–	–
CCN1CCN(C(=O)NC(C(=O)N[C@H]2Cc3ccc(F)c(C(=O)O)c3OB2O)c2ncc(O)cc2Cl)C(=O)C1=O (stereo partly drawn) [Example 151, (3R)-3-(2-(3-chloro-5-hydroxypyridin-2-yl)-2-(4-ethyl-2,3-dioxopiperazine-1-carboxamido)acetamido)-7-fluoro-2-hydroxy-3,4-dihydro-2H-benzo[e][1,2]oxaborinine-8-carboxylic acid]	> 500	–	–	–
